Measurements: patent US6894062B1, “Quinoline derivatives” (Pfizer Inc., priority 2002, dated 2005)
Like-named read-outs stand apart in the source and are kept apart here.

Biological target: T1, Rat 5HT7 Receptors (Rattus norvegicus, UniProt P32305)
T1 construct: expressed in transfected cells; host or cells: HEK-293
Experiment: 3H-5-Carboxamidotryptamine (3H-5-CT) binding to rat 5HT7 receptors expressed in HEK-293 cells
Experimental: The affinities of the active compounds for 5HT7 receptors can be determined using standard radioligand binding assays as described in the literature. The 5HT7 affinity can be measured using the following procedure.
^3H-5-Carboxamidotryptamine (^3H-5-CT) Binding to Rat 5HT7 Receptors Expressed in HEK-293 Cells: […]
Nonspecific binding is determined using 1 uM 5-HT creatinine sulfate. […] Radioactivity is quantified by liquid scintillation counting using a BetaPlate counter (LKB).
The percent inhibition of specific binding is calculated for each concentration of test compound. […] Ki values are calculated according to Cheng & Prusoff: Ki=IC50/(1+(L/Kd)), where L is the concentration of the radioligand used in the experiment and the Kd value is the dissociation constant for the radioligand determined in separate saturation experiments. […]

T1 sequence (P32305 whole entry): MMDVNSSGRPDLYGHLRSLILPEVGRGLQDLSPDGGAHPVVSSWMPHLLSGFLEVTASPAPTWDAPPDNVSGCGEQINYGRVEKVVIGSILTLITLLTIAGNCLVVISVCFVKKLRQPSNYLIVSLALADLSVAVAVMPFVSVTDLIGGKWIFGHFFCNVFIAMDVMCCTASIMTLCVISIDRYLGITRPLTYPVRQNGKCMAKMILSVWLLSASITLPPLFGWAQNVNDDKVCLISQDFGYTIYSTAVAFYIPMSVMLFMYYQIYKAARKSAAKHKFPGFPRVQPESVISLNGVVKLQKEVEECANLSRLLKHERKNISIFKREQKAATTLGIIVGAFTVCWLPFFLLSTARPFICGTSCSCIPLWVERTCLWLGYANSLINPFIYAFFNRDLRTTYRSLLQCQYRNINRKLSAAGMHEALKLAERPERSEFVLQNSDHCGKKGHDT

Cc1cnc2c(C3CCCNC3)cccc2c1 (racemic) [Example 8, 3-Methyl-8-Piperidin-3-yl-Quinoline]
Ki: ~7.6 nM

CCc1cnc2cc(C3CCCNC3)ccc2c1 (racemic) [Example 10, 3-Ethyl-7-Piperidin-3-yl-Quinoline]
Ki (3H-5-CT 0.4 nM radioligand, HEK-293 cell membranes expressing rat 5HT7, Cheng & Prusoff, read-out: Ki): ~500 nM
